We go through 24 compounds from patent EP2508526A1, “Spiroalkene carboxamide derivatives and their use as chemokine receptor modulators” (Ares Trading SA, priority 2011, dated 2012).

Where only a bound is given, the exact number is not on record here.

The test concerns the target T1, hCCR2b (Homo sapiens, UniProt P41597).
T1 sequence (P41597 1-360 isoform P41597-2): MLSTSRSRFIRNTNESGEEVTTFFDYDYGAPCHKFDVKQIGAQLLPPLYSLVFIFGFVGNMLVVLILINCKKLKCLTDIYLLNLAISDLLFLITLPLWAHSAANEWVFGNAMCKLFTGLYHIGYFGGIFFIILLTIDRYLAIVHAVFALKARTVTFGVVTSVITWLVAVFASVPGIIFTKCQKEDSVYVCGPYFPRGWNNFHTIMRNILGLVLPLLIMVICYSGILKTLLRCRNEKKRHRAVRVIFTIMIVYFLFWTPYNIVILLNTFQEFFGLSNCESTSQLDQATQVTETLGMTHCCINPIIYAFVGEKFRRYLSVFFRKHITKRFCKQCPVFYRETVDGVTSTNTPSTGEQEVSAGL
Briefly: CCR2 binding assay ([125I]MCP-1, SPA, CHO cell membranes). The arrangement: expressed in transfected cells; host or cells: CHO cells (membrane preparation). The conditions noted are these: membranes from CHO cells expressing hCCR2b, 50 pM [125I]MCP-1; read-out: Binding hCCR2 (Ki). On the procedure: Membranes were prepared from CHO cells expressing mCCR2b or hCCR2b for use in ligand binding studies. Cells were suspended in 50mM Tris-HCL, pH 7.4, 2 mM EDTA, 250 mM Sucrose and 1x Complete EDTA-free protease inhibitor cocktail (Roche) (Buffer A), and disrupted at 4°C by N2 decompression using a cell disruption bomb (Parr Instrument). Following centrifugation at 200 RCF for 10 min at 4°C, the supernatant was suspended in buffer A and centrifuged again at 19000 RPM (RCSC rotor SS34 code 05 Sorvall Instruments DUPONT) for 90 min at 4°C. The pellet was then suspended in 10 mM HEPES, pH 7.4, 1 mM EDTA, 250 mM Sucrose, and 1x Complete EDTA-free protease inhibitor cocktail (Buffer B) and homogenized using a potter. Membranes were flash frozen in liquid N2 and stored at -80°C. [125I] Monocyte Chemoattractant Protein -1 (MCP-1) (25µCi; Perkin Elmer) was added to test compounds in DMSO (1% final). Membranes and WGA SPA beads (GE Healthcare) were added to give a final volume of 100 µl in 96-well plates with assay concentrations of 50 pM or 100 pM [125I]Monocyte Chemoattractant Protein -1 (respectively for hCCR2b or mCCR2b), 50 mM HEPES, pH 7.4, 5 mM MgCl2, 1 mM CaCl2, 0.1% BSA, 1-5 µg/well of membranes and 100 µg/well of WGA SPA beads. Binding was performed for 90 min at RT with strong agitation of speed 5 (Heidolph Titramax 100 SCITEC) and bound radioactivity was measured on a PerkinElmer 1450 MicroBeta counter. Specific binding was calculated by subtracting remaining radioactivity in the presence of 1000-fold excess of unlabeled compound. Binding data were analyzed using the Genedata Screener® software.
By Ki is commonly meant a measure of affinity in units of concentration, obtained from inhibition or displacement. As to `COc1ccc(C2(O)CCC(N3CCC4(CC3)OC(=O)C(C)=C4C(=O)N3CCc4ccc(C(F)(F)F)cc4C3)CC2)cn1` (stereo not drawn) [Compound 25, 8-[4-hydroxy-4-(6-methoxypyridin-3-yl)cyclohexyl]-3-methyl-4-{[7-(trifluoromethyl)-3,4-dihydroisoquinolin-2(1H)-yl]carbonyl}-1-oxa-8-azaspiro[4.5]dec-3-en-2-one], the inhibitory constant (Ki) is less than 50 nM.
For the compound `CC1=C(C(=O)N2CCc3ccc(C(F)(F)F)cc3C2)C2(CCN(C)CC2)OC1=O` [Compound 27, 3,8-dimethyl-4-{[7-(trifluoromethyl)-3,4-dihydroisoquinolin-2(1H)-yl]carbonyl}-1-oxa-8-azaspiro[4.5]dec-3-en-2-one], the Ki was less than 50 nM.
Consider `CCCN1CCC2(CC1)OC(=O)C(C)=C2C(=O)N1CCc2ccc(C(F)(F)F)cc2C1` [Compound 28, 3-methyl-8-propyl-4-{[7-(trifluoromethyl)-3,4-dihydroisoquinolin-2(1H)-yl]carbonyl}-1-oxa-8-azaspiro[4.5]dec-3-en-2-one], for which the Ki was less than 50 nM.
With `CC1=C(C(=O)N2CCc3ccc(C(F)(F)F)cc3C2)C2(CCN(C3CCCCC3)CC2)OC1=O` [Compound 29, 8-cyclohexyl-3-methyl-4-{[7-(trifluoromethyl)-3,4-dihydroisoquinolin-2(1H)-yl]carbonyl}-1-oxa-8-azaspiro[4.5]dec-3-en-2-one], the Ki was less than 50 nM.
With `CC1=C(C(=O)N2CCc3ccc(C(F)(F)F)cc3C2)C2(CCN(C3CCCC3)CC2)OC1=O` [Compound 30, 8-cyclopentyl-3-methyl-4-{[7-(trifluoromethyl)-3,4-dihydroisoquinolin-2(1H)-yl]carbonyl}-1-oxa-8-azaspiro[4.5]dec-3-en-2-one], the inhibition constant (Ki) is less than 50 nM.
For `CC1=C(C(=O)N2CCc3ccc(C(F)(F)F)cc3C2)C2(CCN(C3CCC(O)CC3)CC2)OC1=O` (stereo not drawn) [Compound 31, 8-(4-hydroxycyclohexyl)-3-methyl-4-{[7-(trifluoromethyl)-3,4-dihydroisoquinolin-2(1H)-yl]carbonyl}-1-oxa-8-azaspiro[4.5]dec-3-en-2-one], the Ki is less than 50 nM.
With `CC1=C(C(=O)N2CCc3ccc(C(F)(F)F)cc3C2)C2(CCN(C3COC3)CC2)OC1=O` [Compound 32, 3-methyl-8-oxetan-3-yl-4-{[7-(trifluoromethyl)-3,4-dihydroisoquinolin-2(1H)-yl]carbonyl}-1-oxa-8-azaspiro[4.5]dec-3-en-2-one], the inhibition constant (Ki) was 50 to 100 nM.
For the compound `CC1=C(C(=O)N2CCc3ccc(C(F)(F)F)cc3C2)C2(CCN(CC3CCOC3)CC2)OC1=O` (stereo not drawn) [Compound 33, 3-methyl-8-(tetrahydrofuran-3-ylmethyl)-4-{[7-(trifluoromethyl)-3,4-dihydroisoquinolin-2(1H)-yl]carbonyl}-1-oxa-8-azaspiro[4.5]dec-3-en-2-one], the Ki was less than 50 nM.
For the compound `CC1=C(C(=O)N2CCc3ccc(C(F)(F)F)cc3C2)C2(CCN(C3CCOC3)CC2)OC1=O` (stereo not drawn) [Compound 34, 3-methyl-8-(tetrahydrofuran-3-yl)-4-{[7-(trifluoromethyl)-3,4-dihydroisoquinolin-2(H)-yl]carbonyl}-1-oxa-8-azaspiro[4.5]dec-3-en-2-one], the Ki was less than 50 nM.
In the case of `CC1=C(C(=O)N2CCc3ccc(C(F)(F)F)cc3C2)C2(CCN(C3CCOC(C)(C)C3)CC2)OC1=O` (stereo not drawn) [Compound 35, 8-(2,2-dimethyltetrahydro-2H-pyran-4-yl)-3-methyl-4-{[7-(trifluoromethyl)-3,4-dihydroisoquinolin-2(1H)-yl]carbonyl}-1-oxa-8-azaspiro[4.5]dec-3-en-2-one], the Ki was less than 50 nM.
`CC1=C(C(=O)N2CCc3ccc(C(F)(F)F)cc3C2)C2(CCN(C3CCOC(C)C3)CC2)OC1=O` (stereo not drawn) [Compound 36, 3-methyl-8-(2-methyltetrahydro-2H-pyran-4-yl)-4-{[7-(trifluoromethyl)-3,4-dihydroisoquinolin-2(1H)-yl]carbonyl}-1-oxa-8-azaspiro[4.5]dec-3-en-2-one]: the Ki was less than 50 nM.
As to `CC1=C(C(=O)N2CCc3ccc(C(F)(F)F)cc3C2)C2(CCN(C3CCS(=O)(=O)CC3)CC2)OC1=O` [Compound 37, 8-(1,1-dioxidotetrahydro-2H-thiopyran-4-yl)-3-methyl-4-{[7-(trifluoromethyl)-3,4-dihydroisoquinolin-2(1H)-yl]carbonyl}-1-oxa-8-azaspiro[4.5]dec-3-en-2-one], the Ki is 50 to 100 nM.
In the case of `CC1=C(C(=O)N2CCc3ccc(C(F)(F)F)cc3C2)C2(CCN(C3CCN(C)CC3)CC2)OC1=O` [Compound 38, 3-methyl-8-(1-methylpiperidin-4-yl)-4-{[7-(trifluoromethyl)-3,4-dihydroisoquinolin-2(1H)-yl]carbonyl}-1-oxa-8-azaspiro[4.5]dec-3-en-2-one] it was 100 to 500 nM.
As to `CC1=C(C(=O)N2CCc3ccc(C(F)(F)F)cc3C2)C2(CCN(C3CCCS(=O)(=O)C3)CC2)OC1=O` (stereo not drawn) [Compound 39, 8-(1,1-dioxidotetrahydro-2H-thiopyran-3-yl)-3-methyl-4-{[7-(trifluoromethyl)-3,4-dihydroisoquinolin-2(1H)-yl]carbonyl}-1-oxa-8-azaspiro[4.5]dec-3-en-2-one], the inhibitory constant (Ki) was 50 to 100 nM.
Turning to `CCN1CCC2(C1)OC(=O)C(C)=C2C(=O)N1CCc2ccc(C(F)(F)F)cc2C1` (stereo not drawn) [Compound 42, 7-ethyl-3-methyl-4-{[7-(trifluoromethyl)-3,4-dihydroisoquinolin-2(1H)-yl]carbonyl}-1-oxa-7-azaspiro[4.4]non-3-en-2-one], the Ki is less than 50 nM.
In the case of `CC1=C(C(=O)N2CCc3ncc(C(F)(F)F)cc3C2)C2(CCN(C3CCC(O)CC3)CC2)OC1=O` (stereo not drawn) [Compound 45, 8-(4-hydroxycyclohexyl)-3-methyl-4-{[3-(trifluoromethyl)-7,8-dihydro-1,6-naphthyridin-6(5H)-yl]carbonyl}-1-oxa-8-azaspiro[4.5]dec-3-en-2-one] it was less than 50 nM; in that of `CC1=C(C(=O)N2CCc3ncc(C(F)(F)F)cc3C2)C2(CCN(CC3CCOC3)CC2)OC1=O` (stereo not drawn) [Compound 46, 3-methyl-8-(tetrahydrofuran-3-ylmethyl)-4-{[3-(trifluoromethyl)-7,8-dihydro-1,6-naphthyridin-6(5H)-yl]carbonyl}-1-oxa-8-azaspiro[4.5]dec-3-en-2-one], less than 50 nM.
`CC1=C(C(=O)N2CCc3ncc(C(F)(F)F)cc3C2)C2(CCN(C3CCOC(C)C3)CC2)OC1=O` (stereo not drawn) [Compound 47, 3-methyl-8-(2-methyltetrahydro-2H-pyran-4-yl)-4-{[3-(trifluoromethyl)-7,8-dihydro-1,6-naphthyridin-6(5H)-yl]carbonyl}-1-oxa-8-azaspiro[4.5]dec-3-en-2-one]: the inhibition constant Ki is less than 50 nM.
With `CCN1CCC2(CC1)OC(=O)C(C)=C2C(=O)N1CCc2ccc(C#N)cc2C1` [Compound 49, 2-[(8-ethyl-3-methyl-2-oxo-1-oxa-8-azaspiro[4.5]dec-3-en-4-yl)carbonyl]-1,2,3,4-tetrahydroisoquinoline-7-carbonitrile], the Ki lay in the range of 100 to 500 nM.
As to `CCN1CCC2(CC1)OC(=O)C(C)=C2C(=O)N1CCc2ccc(Cl)cc2C1` [Compound 50, 4-[(7-chloro-3,4-dihydroisoquinolin-2(1H)-yl)carbonyl]-8-ethyl-3-methyl-1-oxa-8-azaspiro[4.5]dec-3-en-2-one], the Ki is less than 50 nM.
As for `CCN1CCC2(CC1)OC(=O)C(C)=C2C(=O)N1CCc2cccc(C(F)(F)F)c2C1` [Compound 51, 8-ethyl-3-methyl-4-{[8-(trifluoromethyl)-3,4-dihydroisoquinolin-2 (1H)-yl]carbonyl}-1-oxa-8-azaspiro[4.5]dec-3-en-2-one], the inhibitory constant (Ki) lay in the range of 500 to 2000 nM.
The same measure for `CCN1CCC2(CC1)OC(=O)C(C)=C2C(=O)N1CCCN(c2cccc(F)c2)CC1` [Compound 52, 8-ethyl-4-{[4-(3-fluorophenyl)-1,4-diazepan-1-yl]carbonyl}-3-methyl-1-oxa-8-azaspiro[4.5]dec-3-en-2-one]: 500 to 2000 nM.
In the case of `CCN1CCC2(CC1)OC(=O)C(C)=C2C(=O)N1CCc2ccc(F)cc2C1` [Compound 53, 8-ethyl-4-[(7-fluoro-3,4-dihydroisoquinolin-2(1H)-yl)carbonyl]-3-methyl-1-oxa-8-azaspiro[4.5]dec-3-en-2-one] it was 100 to 500 nM.
For the compound `CCN1CCC2(CC1)OC(=O)C(C)=C2C(=O)N1CCc2cc(C(F)(F)F)ccc2C1` [Compound 54, 8-ethyl-3-methyl-4-{[6-(trifluoromethyl)-3,4-dihydroisoquinolin-2 (1H)-yl]carbonyl}-1-oxa-8-azaspiro[4.5]dec-3-en-2-one], the inhibition constant Ki was less than 50 nM.
